Holding throughout (assay): relative viability (nuclei count vs DMSO), 5 days (fraction); higher = more cells survive
Compound in the test “Shikonin + OSI-027”: CC(C)=CC[C@@H](O)C1=CC(=O)c2c(O)ccc(O)c2C1=O [Shikonin] + COc1cccc2cc(-c3nc([C@H]4CC[C@H](C(=O)O)CC4)n4ncnc(N)c34)[nH]c12 [OSI-027] (partner 0.5 µM)
Put shortly: (§1)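 One day after seeding in 1536-well plates, lung cancer cell lines were dosed by pin tool. Dosing was either single-drug or a fixed anchor-drug dose plus five library-drug doses (not always all listed) in √10 steps. After 5 days, nuclei were stained in one fix-and-stain step and counted on 4× images, and relative viability is the nuclei count of treated wells over that of vehicle wells, given as the median of duplicate plates.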

Compound in test [1]: CC(C)N(CCCNC(=O)Nc1ccc(C(C)(C)C)cc1)C[C@H]1O[C@@H](n2ccc3c(N)ncnc32)[C@H](O)[C@@H]1O + NC(=O)Nc1cc(-c2cccc(F)c2)sc1C(=O)N[C@H]1CCCNC1 [AZD7762] (partner 0.2 µM)
A digest of the protocol:
as §1

Compound in test [2]: CC(C)N(CCCNC(=O)Nc1ccc(C(C)(C)C)cc1)C[C@H]1O[C@@H](n2ccc3c(N)ncnc32)[C@H](O)[C@@H]1O + CS(=O)(=O)CCNCc1ccc(-c2ccc3ncnc(Nc4ccc(OCc5cccc(F)c5)c(Cl)c4)c3c2)o1 [Lapatinib] (partner 2 µM)
Put shortly:
as §1

Compound in test [3]: CC(C)N(CCCNC(=O)Nc1ccc(C(C)(C)C)cc1)C[C@H]1O[C@@H](n2ccc3c(N)ncnc32)[C@H](O)[C@@H]1O + CCNC(=O)c1noc(-c2cc(C(C)C)c(O)cc2O)c1-c1ccc(CN2CCOCC2)cc1 [Luminespib] (partner 0.01 µM)
A digest of the protocol:
as §1

On to NCI-H2126, for which the relative viability amounted to 0.709 in the test with Shikonin + OSI-027 (first compound 0.01 µM); 0.638 with Shikonin + OSI-027 (first compound 0.1 µM); 0.735 in the test with Shikonin + OSI-027 (first compound 0.3162 µM); 0.67 with Shikonin + OSI-027 (first compound 1 µM); 0.913 in test [1] (first compound 0.08 µM); 1.01 in test [1] (first compound 0.253 µM). The relative viability stood at 0.956 in test [1] (first compound 0.8 µM); 0.988 in test [1] (first compound 2.53 µM); 0.965 in test [1] (first compound 8 µM); 0.721 in test [2] (first compound 0.08 µM); 0.735 in test [2] (first compound 0.253 µM); 0.681 in test [2] (first compound 0.8 µM). For the same cell line, the relative viability in test [2] (first compound 2.53 µM) was found to be 0.718; in test [2] (first compound 8 µM) it was 0.742; in test [3] (first compound 0.08 µM) it was 0.847; in test [3] (first compound 0.253 µM), 0.814; in test [3] (first compound 0.8 µM), 0.941; in test [3] (first compound 2.53 µM), 0.88. Also, the relative viability in test [3] (first compound 8 µM) turned out to be 0.925.
As to NCI-H2170, the relative viability came to 0.729 in the test with Shikonin + OSI-027 (first compound 0.01 µM); 0.695 in the test with Shikonin + OSI-027 (first compound 0.1 µM); 0.782 with Shikonin + OSI-027 (first compound 0.3162 µM); 0.777 with Shikonin + OSI-027 (first compound 1 µM); 0.934 in test [1] (first compound 0.08 µM); 0.79 in test [1] (first compound 0.253 µM). Further, the relative viability came out at 0.66 in test [1] (first compound 0.8 µM); 0.836 in test [1] (first compound 2.53 µM); 0.857 in test [1] (first compound 8 µM); 0.248 in test [2] (first compound 0.08 µM); 0.26 in test [2] (first compound 0.253 µM); 0.256 in test [2] (first compound 0.8 µM). Also, the relative viability was 0.262 in test [2] (first compound 2.53 µM); 0.266 in test [2] (first compound 8 µM); 0.793 in test [3] (first compound 0.08 µM); 0.762 in test [3] (first compound 0.253 µM); 0.718 in test [3] (first compound 0.8 µM); 0.661 in test [3] (first compound 2.53 µM). Moreover, the relative viability in test [3] (first compound 8 µM) was 0.629.
NCI-H2347: the relative viability is 0.444 in the test with Shikonin + OSI-027 (first compound 0.01 µM); 0.425 in the test with Shikonin + OSI-027 (first compound 0.1 µM); 0.391 in the test with Shikonin + OSI-027 (first compound 0.3162 µM); 0.398 with Shikonin + OSI-027 (first compound 1 µM); 0.795 in test [1] (first compound 0.08 µM); 0.815 in test [1] (first compound 0.253 µM). The relative viability in test [1] (first compound 0.8 µM) turned out to be 0.605; in test [1] (first compound 2.53 µM) it was 0.803; in test [1] (first compound 8 µM), 0.746; in test [2] (first compound 0.08 µM), 0.965; in test [2] (first compound 0.253 µM), 0.999; in test [2] (first compound 0.8 µM) it was 0.654. Besides, the relative viability in test [2] (first compound 2.53 µM) came to 0.968; in test [2] (first compound 8 µM) it was 0.934; in test [3] (first compound 0.08 µM) it was 0.578; in test [3] (first compound 0.253 µM), 0.321; in test [3] (first compound 0.8 µM), 0.245; in test [3] (first compound 2.53 µM) it was 0.371. For the same cell line, the relative viability in test [3] (first compound 8 µM) came out at 0.555.
Consider NCI-H2405, for which the relative viability was 0.644 with Shikonin + OSI-027 (first compound 0.01 µM); 0.661 in the test with Shikonin + OSI-027 (first compound 0.1 µM); 0.67 with Shikonin + OSI-027 (first compound 0.3162 µM); 0.658 in the test with Shikonin + OSI-027 (first compound 1 µM); 0.742 in test [1] (first compound 0.08 µM); 0.817 in test [1] (first compound 0.253 µM). For the same cell line, the relative viability in test [1] (first compound 0.8 µM) worked out at 0.689; in test [1] (first compound 2.53 µM), 0.844; in test [1] (first compound 8 µM), 0.699; in test [2] (first compound 0.08 µM) it was 1.14; in test [2] (first compound 0.8 µM), 0.811; in test [2] (first compound 2.53 µM), 1.13. For the same cell line, the relative viability in test [2] (first compound 8 µM) was 1.09; in test [3] (first compound 0.08 µM) it was 0.691; in test [3] (first compound 0.253 µM) it was 0.61; in test [3] (first compound 0.8 µM), 0.722; in test [3] (first compound 2.53 µM) it was 0.78; in test [3] (first compound 8 µM), 0.74.
For the cell line NCI-H3122, the relative viability with Shikonin + OSI-027 (first compound 0.01 µM) amounted to 1.07; in the test with Shikonin + OSI-027 (first compound 0.1 µM) it was 1.27; in the test with Shikonin + OSI-027 (first compound 0.3162 µM) it was 1.03; with Shikonin + OSI-027 (first compound 1 µM) it was 1.06; in test [1] (first compound 0.08 µM) it was 0.967; in test [1] (first compound 0.253 µM), 1.03. Besides, the relative viability in test [1] (first compound 0.8 µM) worked out at 1.02; in test [1] (first compound 2.53 µM), 0.907; in test [1] (first compound 8 µM), 0.959; in test [2] (first compound 0.08 µM), 1.09; in test [2] (first compound 0.253 µM), 0.938; in test [2] (first compound 0.8 µM) it was 1.02. Besides, the relative viability was found to be 1.02 in test [2] (first compound 2.53 µM); 1.03 in test [2] (first compound 8 µM); 0.0976 in test [3] (first compound 0.08 µM); 0.0883 in test [3] (first compound 0.253 µM); 0.117 in test [3] (first compound 0.8 µM); 0.0934 in test [3] (first compound 2.53 µM). In addition, in test [3] (first compound 8 µM), the relative viability is 0.102.
As to PC-3 [JPC-3], the relative viability with Shikonin + OSI-027 (first compound 0.01 µM) was determined as 0.851; in the test with Shikonin + OSI-027 (first compound 0.1 µM) it was 0.746; with Shikonin + OSI-027 (first compound 0.3162 µM), 0.759; with Shikonin + OSI-027 (first compound 1 µM), 0.751; in test [1] (first compound 0.08 µM), 0.759; in test [1] (first compound 0.253 µM) it was 0.81. In addition, the relative viability in test [1] (first compound 2.53 µM) was 0.794; in test [1] (first compound 8 µM) it was 0.872; in test [2] (first compound 0.08 µM), 0.433; in test [2] (first compound 0.253 µM), 0.478; in test [2] (first compound 0.8 µM), 0.419; in test [2] (first compound 2.53 µM), 0.467. Besides, the relative viability in test [2] (first compound 8 µM) was 0.462; in test [3] (first compound 0.08 µM) it was 0.699; in test [3] (first compound 0.253 µM), 0.704; in test [3] (first compound 0.8 µM), 0.779; in test [3] (first compound 2.53 µM), 0.71; in test [3] (first compound 8 µM) it was 0.683.
For PC-14, the relative viability with Shikonin + OSI-027 (first compound 0.01 µM) worked out at 0.921; in the test with Shikonin + OSI-027 (first compound 0.1 µM) it was 0.556; with Shikonin + OSI-027 (first compound 0.3162 µM), 1.06; with Shikonin + OSI-027 (first compound 1 µM), 0.9; in test [1] (first compound 0.08 µM) it was 0.321; in test [1] (first compound 0.253 µM), 0.364. The relative viability in test [1] (first compound 0.8 µM) came out at 0.401; in test [1] (first compound 2.53 µM) it was 0.274; in test [1] (first compound 8 µM), 0.287; in test [2] (first compound 0.08 µM), 0.287; in test [2] (first compound 0.253 µM), 0.284; in test [2] (first compound 0.8 µM), 0.355. Moreover, the relative viability in test [2] (first compound 2.53 µM) came to 0.332; in test [2] (first compound 8 µM) it was 0.316; in test [3] (first compound 0.08 µM), 0.109; in test [3] (first compound 0.253 µM) it was 0.24; in test [3] (first compound 0.8 µM) it was 0.213; in test [3] (first compound 2.53 µM), 0.175. In test [3] (first compound 8 µM), the relative viability turned out to be 0.181.
Consider RERF-LC-KJ, for which the relative viability was determined as 0.513 with Shikonin + OSI-027 (first compound 0.01 µM); 0.534 with Shikonin + OSI-027 (first compound 0.1 µM); 0.632 in the test with Shikonin + OSI-027 (first compound 0.3162 µM); 0.644 in the test with Shikonin + OSI-027 (first compound 1 µM); 1.09 in test [1] (first compound 0.08 µM); 0.954 in test [1] (first compound 0.253 µM). Besides, the relative viability is 0.867 in test [1] (first compound 0.8 µM); 0.981 in test [1] (first compound 2.53 µM); 0.84 in test [1] (first compound 8 µM); 0.894 in test [2] (first compound 0.08 µM); 0.841 in test [2] (first compound 0.253 µM); 0.861 in test [2] (first compound 0.8 µM). Moreover, the relative viability in test [2] (first compound 2.53 µM) was 0.911; in test [2] (first compound 8 µM), 0.829; in test [3] (first compound 0.08 µM), 1.2; in test [3] (first compound 0.253 µM), 1.22; in test [3] (first compound 0.8 µM), 1.33; in test [3] (first compound 2.53 µM), 1.18. For the same cell line, in test [3] (first compound 8 µM), the relative viability came out at 1.19.

Values taken from the supplement of paper PMC10307832.
